Assay results reported in publication PMC8498988, “Scaffold Hybridization Strategy Leads to the Discovery of Dopamine D3 Receptor-Selective or Multitarget Bitopic Ligands Potentially Useful for Central Nervous System Disorders” (ACS Chemical Neuroscience, 2021).
Where two headings read alike, the source gives them in different places. Marks after values point to notes of the source that are not given here.

How the values were obtained:
D3R [1] = molecular target: T1, D3R (Homo sapiens, UniProt P35462); parameters: expressed in transfected cells; host or cells: HEK293; settings: cited from earlier work; for D2/D3: ratio of Ki values D2R/D3R; for D4/D3: ratio of Ki values D4R/D3R
human D1R = molecular target: T2, human D1R (Homo sapiens, UniProt P21728); settings: human cloned receptor; read-out: Ki ± SEM, D1R; cited from earlier work
T2 construct: expressed in transfected cells; host or cells: mouse fibroblast cells (LhD1)

human 5-HT1AR = molecular target: T3, human 5-HT1AR (Homo sapiens, UniProt P08908); settings: human cloned receptor; read-out: Ki ± SEM, 5-HT1AR; cited from earlier work
T3 construct: expressed in transfected cells; host or cells: HeLa
T3 sequence (P08908 1-422): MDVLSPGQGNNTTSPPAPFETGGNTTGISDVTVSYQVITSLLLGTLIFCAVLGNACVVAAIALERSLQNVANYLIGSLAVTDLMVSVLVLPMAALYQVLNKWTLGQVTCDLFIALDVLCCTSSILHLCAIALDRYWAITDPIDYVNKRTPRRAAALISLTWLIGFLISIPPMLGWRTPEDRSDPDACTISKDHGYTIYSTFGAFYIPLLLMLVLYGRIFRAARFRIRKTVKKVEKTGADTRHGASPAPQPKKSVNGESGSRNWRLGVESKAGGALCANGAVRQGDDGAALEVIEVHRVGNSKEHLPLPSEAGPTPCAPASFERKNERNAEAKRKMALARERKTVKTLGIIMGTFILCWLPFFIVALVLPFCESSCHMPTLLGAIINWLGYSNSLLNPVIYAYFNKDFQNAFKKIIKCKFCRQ

5-HT2AR = 5-HT2AR (Homo sapiens, UniProt P28223); parameters: expressed in transfected cells; host or cells: HEK (HEK-h5HT2A); settings: human cloned receptor; read-out: Ki ± SEM, 5-HT2AR; cited from earlier work
D3R [2] = molecular target: T1, D3R; experiment: Radioligand competition binding at human D3R ([3H]N-methylspiperone, HEK293 membranes); parameters: expressed in transfected cells; host or cells: HEK293
Protocol: The novel hybrid derivatives 3–11 were tested at hD2R, hD3R, or hD4R stably expressed in HEK293 cells by competition binding assays, using [^3H]N-methylspiperone as the radioligand, to evaluate their D2-like affinity and subtype selectivity, following the previously reported procedures.[41],[45],[46]
Binding at dopamine D2-like receptors was determined using previously described methods.[41],[45],[46] Membranes were prepared from HEK293 cells stably expressing human D2, D3, or D4, grown in a 50:50 mix of Dulbecco’s minimal essential medium (DMEM) and Ham’s F12 culture media, supplemented with 20 mM HEPES, 2 mM L-glutamine, 0.1 mM nonessential amino acids, 1× antibiotic/antimycotic, 10% heat-inactivated fetal bovine serum, and 200 μg/mL hygromycin (Life Technologies, Grand Island, NY) and kept in an incubator at 37 °C and 5% CO2. Upon reaching 80–90% confluency, the cells were harvested using premixed Earle’s Balanced Salt Solution (EBSS) with 5 μM EDTA (Life Technologies) and centrifuged at 3000 rpm for 10 min at 21 °C. The supernatant was removed, and the pellet was resuspended in 10 mL hypotonic lysis buffer (5 mM MgCl2, 5 mM Tris, pH 7.4 at 4 °C) and centrifuged at 20,000 rpm for 30 min at 4 °C. The pellet was then resuspended in fresh EBSS buffer made from 8.7 g/L Earle’s Balanced Salts without phenol red (US Biological, Salem, MA), 2.2 g/L sodium bicarbonate, pH to 7.4. A Bradford protein assay (Bio-Rad, Hercules, CA) was used to determine the protein concentration, and membranes were diluted to 500 μg/mL and stored at −80 °C for later use. Radioligand competition binding experiments were conducted using thawed membranes. Test compounds were freshly dissolved in 30% DMSO and 70% H2O to a stock concentration of 100 μM. To assist the solubilization of free-base compounds, 10 μL of glacial acetic acid was added along with DMSO. Each test compound was then diluted into 13 half-log serial dilutions using 30% DMSO vehicle; the final test concentrations ranged from 10 μM to 10 pM. The previously frozen membranes were diluted in fresh EBSS to a 100 μg/mL (for D2 or D3) or 200 μg/mL (D4) stock for binding. Radioligand competition experiments were conducted in glass tubes containing 300 μL of fresh EBSS buffer, 50 μL of diluted test compound, 100 μL of membranes (10 μg of total protein for D2 or D3 and 20 μg of total protein for D4), and 50 μL of [^3H]N-methylspiperone (0.4 nM final concentration; PerkinElmer). Nonspecific binding was determined using 10 μM butaclamol (Sigma-Aldrich, St. Louis, MO), and total binding was determined with the 30% DMSO vehicle. All compound dilutions were tested in triplicate and the reaction was incubated for 1 h at room temperature. The reaction was terminated by filtration through Whatman GF/B filters, presoaked for 1 h in 0.5% polyethylenimine, using a Brandel R48 filtering manifold (Brandel Instruments, Gaithersburg, MD). The filters were washed three times with 3 mL of ice-cold EBSS buffer and transferred to scintillation vials. CytoScint liquid scintillation cocktail (3 mL, MP Biomedicals, Solon, OH) was added, and vials were counted using a PerkinElmer Tri-Carb 2910 TR liquid scintillation counter (Waltham, MA).

5-HT2CR = molecular target: T4, 5-HT2CR (Homo sapiens, UniProt P28335); parameters: expressed in transfected cells; host or cells: HEK (HEK-h5HT2C); settings: human cloned receptor; read-out: Ki ± SEM, 5-HT2CR; cited from earlier work
T4 sequence (P28335 33-458): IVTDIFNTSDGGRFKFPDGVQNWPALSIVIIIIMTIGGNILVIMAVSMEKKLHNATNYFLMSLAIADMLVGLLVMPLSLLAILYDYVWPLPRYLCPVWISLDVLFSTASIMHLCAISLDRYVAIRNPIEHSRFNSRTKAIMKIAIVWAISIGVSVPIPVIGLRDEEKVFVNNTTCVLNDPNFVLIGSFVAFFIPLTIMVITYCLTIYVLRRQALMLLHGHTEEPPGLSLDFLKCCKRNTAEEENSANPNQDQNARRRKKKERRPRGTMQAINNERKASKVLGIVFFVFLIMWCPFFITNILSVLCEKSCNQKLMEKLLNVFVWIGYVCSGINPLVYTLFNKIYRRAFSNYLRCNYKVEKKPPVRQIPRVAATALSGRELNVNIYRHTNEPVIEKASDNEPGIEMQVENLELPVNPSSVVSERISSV

D2R = D2R (Homo sapiens, UniProt P14416); parameters: expressed in transfected cells; host or cells: HEK293; settings: human cloned receptor; read-out: Ki ± SEM, D2R; cited from earlier work
Sequence of D2R (P14416 whole entry): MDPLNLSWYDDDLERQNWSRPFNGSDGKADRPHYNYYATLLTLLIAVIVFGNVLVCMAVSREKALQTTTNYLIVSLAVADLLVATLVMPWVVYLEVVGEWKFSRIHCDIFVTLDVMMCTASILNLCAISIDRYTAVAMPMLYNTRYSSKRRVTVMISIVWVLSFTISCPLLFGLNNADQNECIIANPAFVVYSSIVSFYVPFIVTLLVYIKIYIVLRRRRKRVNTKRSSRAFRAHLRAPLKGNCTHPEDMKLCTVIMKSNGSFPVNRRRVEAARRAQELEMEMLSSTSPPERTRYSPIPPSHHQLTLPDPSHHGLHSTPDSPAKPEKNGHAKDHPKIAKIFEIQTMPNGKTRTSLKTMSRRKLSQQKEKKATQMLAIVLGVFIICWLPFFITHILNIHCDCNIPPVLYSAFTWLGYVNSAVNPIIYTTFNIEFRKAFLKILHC

T1 sequence (P35462 whole entry): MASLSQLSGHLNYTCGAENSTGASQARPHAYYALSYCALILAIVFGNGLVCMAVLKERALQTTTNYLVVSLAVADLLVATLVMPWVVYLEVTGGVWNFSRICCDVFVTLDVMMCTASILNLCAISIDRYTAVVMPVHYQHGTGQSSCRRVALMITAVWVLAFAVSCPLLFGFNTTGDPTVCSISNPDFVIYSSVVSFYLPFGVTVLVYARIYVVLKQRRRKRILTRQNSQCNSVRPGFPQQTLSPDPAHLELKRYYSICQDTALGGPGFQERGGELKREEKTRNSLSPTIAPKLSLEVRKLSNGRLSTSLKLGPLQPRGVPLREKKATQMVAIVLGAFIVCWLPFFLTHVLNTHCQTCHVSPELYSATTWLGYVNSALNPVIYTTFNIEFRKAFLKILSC
T2 sequence (P21728 whole entry): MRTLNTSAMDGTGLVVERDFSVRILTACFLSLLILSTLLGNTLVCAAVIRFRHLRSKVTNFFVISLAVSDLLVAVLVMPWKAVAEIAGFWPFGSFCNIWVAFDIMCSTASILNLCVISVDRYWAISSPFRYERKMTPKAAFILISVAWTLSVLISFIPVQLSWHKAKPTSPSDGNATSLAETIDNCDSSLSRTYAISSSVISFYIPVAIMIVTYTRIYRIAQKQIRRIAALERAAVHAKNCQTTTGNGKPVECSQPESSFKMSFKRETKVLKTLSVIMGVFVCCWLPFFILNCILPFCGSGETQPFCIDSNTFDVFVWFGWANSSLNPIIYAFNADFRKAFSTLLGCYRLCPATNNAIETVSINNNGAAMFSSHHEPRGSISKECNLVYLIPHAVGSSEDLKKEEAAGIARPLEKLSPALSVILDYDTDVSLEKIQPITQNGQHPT
Sequence of 5-HT2AR (P28223 whole entry): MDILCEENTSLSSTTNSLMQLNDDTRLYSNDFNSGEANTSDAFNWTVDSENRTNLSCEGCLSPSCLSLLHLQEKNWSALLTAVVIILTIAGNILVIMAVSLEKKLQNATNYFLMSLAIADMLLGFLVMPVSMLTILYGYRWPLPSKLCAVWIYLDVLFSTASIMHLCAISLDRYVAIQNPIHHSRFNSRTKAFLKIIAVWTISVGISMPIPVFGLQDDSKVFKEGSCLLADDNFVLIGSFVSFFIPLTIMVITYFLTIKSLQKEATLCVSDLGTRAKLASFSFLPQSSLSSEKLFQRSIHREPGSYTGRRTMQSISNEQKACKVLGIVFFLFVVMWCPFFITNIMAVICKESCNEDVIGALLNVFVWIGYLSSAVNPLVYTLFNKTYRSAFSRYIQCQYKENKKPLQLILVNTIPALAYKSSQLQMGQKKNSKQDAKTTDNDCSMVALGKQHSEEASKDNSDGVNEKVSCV

Which results are given for `CN1CCN(C2=Nc3cc(Cl)ccc3Nc3ccccc32)CC1` [clozapine]?
D2/D3 (D3R [1]): 0.62 ^e; D4/D3 (D3R [1]): 0.21 ^e

With `COc1ccccc1OCCNCC1COCC(c2ccccc2)(c2ccccc2)O1` (stereo not shown) [compound 1] as the molecule, how does the Ki (human D1R) read?
The Ki was 22.9 ± 3.1 nM.

For `Oc1cccc(OCCNCC2COCC(c3ccccc3)(c3ccccc3)O2)c1` (stereo not shown) [compound 2], which Ki (human 5-HT1AR) is on record?
Its Ki is 1.15 ± 0.03 nM.

And the Ki (5-HT2AR)?
The Ki was 1410 ± 224 nM.

And the Ki (D3R [1]; human cloned receptor, read-out: Ki ± SEM, D3R)?
Its Ki is 1.38 ± 0.07 nM.

And the Ki (human D1R)?
The Ki was 123 ± 11 nM.

What about the D2/D3 (D3R [2]; ratio of Ki values D2R/D3R) of the same molecule?
The D2/D3 was 2.

And the D4/D3 (D3R [2]; ratio of Ki values D4R/D3R)?
Its D4/D3 is 8.

And the Ki (5-HT2CR)?
The Ki was 9770 ± 501 nM.

And the Ki (D2R)?
The Ki was 3.16 ± 1 nM.

Which D2/D3 (D3R [1]) does the source give for `Cc1cc2c(s1)Nc1ccccc1N=C2N1CCN(C)CC1` [olanzapine] here?
The D2/D3 was 0.62 ^e.

And the D4/D3 (D3R [1])?
The D4/D3 was 0.51 ^e.
